In patent US5089513A, “5-lipoxygenase inhibitory thiazoles” (ICI Pharma, priority 1988, dated 1992) one finds ED50 and IC50 data, which are given here for two compounds.

SMILES strings stand for the structures.

The target in test [1] is T1, 5-LO (Rattus norvegicus, UniProt P12527).
T1 construct: blood collection, heparinisation, challenge with A23187 and radioimmunoassay of LTB4 and TxB2; endogenous in cells
T1 sequence (P12527 1-673): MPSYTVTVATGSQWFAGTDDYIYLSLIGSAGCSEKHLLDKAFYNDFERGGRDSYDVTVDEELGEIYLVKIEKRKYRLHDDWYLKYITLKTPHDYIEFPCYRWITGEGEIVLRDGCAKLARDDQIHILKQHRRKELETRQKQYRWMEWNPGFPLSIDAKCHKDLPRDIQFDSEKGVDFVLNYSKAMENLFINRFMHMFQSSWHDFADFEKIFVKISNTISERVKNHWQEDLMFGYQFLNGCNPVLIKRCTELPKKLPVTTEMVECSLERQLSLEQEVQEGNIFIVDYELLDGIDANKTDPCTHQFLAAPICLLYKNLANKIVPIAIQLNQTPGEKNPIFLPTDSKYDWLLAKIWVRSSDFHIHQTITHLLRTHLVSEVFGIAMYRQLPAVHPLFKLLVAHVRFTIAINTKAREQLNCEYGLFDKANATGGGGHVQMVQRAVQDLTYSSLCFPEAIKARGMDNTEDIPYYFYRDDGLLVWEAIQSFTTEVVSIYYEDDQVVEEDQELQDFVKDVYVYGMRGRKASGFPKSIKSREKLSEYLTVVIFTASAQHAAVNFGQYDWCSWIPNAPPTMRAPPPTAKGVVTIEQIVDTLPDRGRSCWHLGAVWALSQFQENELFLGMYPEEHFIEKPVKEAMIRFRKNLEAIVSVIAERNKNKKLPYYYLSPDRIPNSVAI
Kind of test: Test c) ex vivo assay, blood collected after oral administration, A23187 challenge, LTB4 radioimmunoassay. Type of test: in vivo.

The target of test [2] is T2, 5-LO (Homo sapiens, UniProt P09917).
T2 construct: incubating a test compound with heparinised human blood; endogenous in cells; host or cells: leukocytes in heparinised human whole blood
T2 sequence (P09917 1-674): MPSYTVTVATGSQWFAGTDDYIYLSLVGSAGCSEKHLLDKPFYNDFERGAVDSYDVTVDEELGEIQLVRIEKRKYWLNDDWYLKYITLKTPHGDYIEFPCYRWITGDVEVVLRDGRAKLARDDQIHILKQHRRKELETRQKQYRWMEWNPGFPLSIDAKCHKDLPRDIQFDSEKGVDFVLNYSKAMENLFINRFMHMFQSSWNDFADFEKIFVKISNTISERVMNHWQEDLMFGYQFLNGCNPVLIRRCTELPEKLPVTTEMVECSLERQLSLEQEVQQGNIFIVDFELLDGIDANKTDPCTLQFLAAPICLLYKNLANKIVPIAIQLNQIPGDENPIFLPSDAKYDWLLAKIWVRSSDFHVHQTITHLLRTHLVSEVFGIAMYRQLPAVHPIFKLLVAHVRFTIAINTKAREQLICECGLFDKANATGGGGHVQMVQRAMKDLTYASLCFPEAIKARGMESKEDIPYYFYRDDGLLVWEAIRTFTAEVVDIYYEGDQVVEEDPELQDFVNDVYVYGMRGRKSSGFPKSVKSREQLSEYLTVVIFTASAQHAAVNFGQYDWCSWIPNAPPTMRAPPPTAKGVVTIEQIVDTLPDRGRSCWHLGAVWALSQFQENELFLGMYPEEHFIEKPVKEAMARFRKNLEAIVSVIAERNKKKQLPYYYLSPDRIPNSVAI
Kind of test: Test b) heparinised human blood challenged with A23187, LTB4 radioimmunoassay. The format is cell-based.
Experimental: b) An in vitro assay system involving incubating a test compound with heparinised human blood, prior to challenge with the calcium ionophore A23187 and then indirectly measuring the inhibitory effects on 5-LO by assaying the amount of LTB4 using the specific radioimmunoassay described by Carey and Forder (F. Carey and R. A. Forder, Brit. […] This test provides an indication of the effects of a test compound against 5-LO and also cyclooxygenase in the presence of blood cells and proteins. It permits the selectivity of the inhibitory effect on 5-LO or cyclooxygenase to be assessed.

For test [3], the target named is T3, cyclooxygenase (Homo sapiens, UniProt P23219).
T3 construct: incubating a test compound with heparinised human blood; endogenous in cells; host or cells: blood cells (mainly platelets, own knowledge) in heparinised human whole blood
T3 sequence (P23219 24-599): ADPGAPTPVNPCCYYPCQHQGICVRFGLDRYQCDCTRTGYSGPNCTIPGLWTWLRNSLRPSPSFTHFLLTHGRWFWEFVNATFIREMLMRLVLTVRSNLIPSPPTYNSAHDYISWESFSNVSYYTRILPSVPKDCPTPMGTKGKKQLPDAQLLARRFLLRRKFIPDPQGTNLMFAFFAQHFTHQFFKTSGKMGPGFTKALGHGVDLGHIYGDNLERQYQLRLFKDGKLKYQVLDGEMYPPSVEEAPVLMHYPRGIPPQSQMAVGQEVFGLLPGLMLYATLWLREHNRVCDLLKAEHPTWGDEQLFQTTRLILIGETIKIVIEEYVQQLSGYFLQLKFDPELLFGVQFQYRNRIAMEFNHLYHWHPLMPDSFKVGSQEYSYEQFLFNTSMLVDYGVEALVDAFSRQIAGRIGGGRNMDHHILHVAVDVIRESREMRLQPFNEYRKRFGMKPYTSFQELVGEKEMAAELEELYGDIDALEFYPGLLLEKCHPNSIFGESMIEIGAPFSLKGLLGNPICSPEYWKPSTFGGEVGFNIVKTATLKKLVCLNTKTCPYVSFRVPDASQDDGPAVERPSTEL
Kind of test: Test b) heparinised human blood challenged with A23187, TxB2 radioimmunoassay. The format is cell-based. The method, then: b) An in vitro assay system involving incubating a test compound with heparinised human blood, prior to challenge with the calcium ionophore A23187 and then indirectly measuring the inhibitory effects on 5-LO by assaying the amount of LTB4 using the specific radioimmunoassay described by Carey and Forder (F. Carey and R. A. Forder, Brit. J. Pharmacol. 1985, 84, 34P) which involves the use of a protein-LTB4 conjugate produced using the procedure of Young et alia (Prostaglandins, 1983, 26(4),605-613). The effects of a test compound on the enzyme cyclooxygenase (which is involved in the alternative metabolic pathway for arachidonic acid and gives rise to prostaglandins, thromboxanes and related metabolites) may be measured at the same time using the specific radioimmunoassay for thromboxane B2 (TxB2) described by Carey and Forder (see above). This test provides an indication of the effects of a test compound against 5-LO and also cyclooxygenase in the presence of blood cells and proteins. It permits the selectivity of the inhibitory effect on 5-LO or cyclooxygenase to be assessed.

Test [4] deals with T4, 5-LO (Cavia porcellus, UniProt A0A286X958).
T4 construct: 5-LO isolated from guinea pig neutrophils; endogenous in cells; host or cells: guinea pig neutrophils (enzyme isolated, soluble, cell-free)
T4 sequence (A0A286X958 1-674): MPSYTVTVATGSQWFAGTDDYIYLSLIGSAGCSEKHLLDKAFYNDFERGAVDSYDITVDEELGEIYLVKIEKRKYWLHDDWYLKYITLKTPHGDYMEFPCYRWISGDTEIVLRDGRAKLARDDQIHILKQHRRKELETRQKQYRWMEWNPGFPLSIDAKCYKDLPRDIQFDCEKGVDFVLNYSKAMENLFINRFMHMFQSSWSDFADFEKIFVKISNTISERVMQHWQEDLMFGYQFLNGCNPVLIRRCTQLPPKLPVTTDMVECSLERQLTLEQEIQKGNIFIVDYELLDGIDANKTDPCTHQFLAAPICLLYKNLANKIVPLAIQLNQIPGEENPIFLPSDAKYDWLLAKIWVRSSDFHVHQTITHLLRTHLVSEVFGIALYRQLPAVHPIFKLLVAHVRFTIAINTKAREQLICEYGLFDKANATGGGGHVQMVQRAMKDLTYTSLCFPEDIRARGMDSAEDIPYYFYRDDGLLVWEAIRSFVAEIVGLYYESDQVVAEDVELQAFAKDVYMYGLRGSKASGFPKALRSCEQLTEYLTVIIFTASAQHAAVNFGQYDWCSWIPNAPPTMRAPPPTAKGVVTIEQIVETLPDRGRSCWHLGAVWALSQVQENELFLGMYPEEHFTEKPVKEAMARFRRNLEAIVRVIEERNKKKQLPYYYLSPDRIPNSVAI
Kind of test: Test a) in vitro spectrophotometric cell free enzyme assay using 5-LO isolated from guinea pig neutrophils. Type of test: biochemical. The text has this:
a) An in vitro spectrophotometric enzyme assay system, which assesses the inhibitory properties of a test compound in a cell free system using 5-LO isolated from guinea pig neutrophils and as described by D.Aharony and R. L. Stein (J. Biol. Chem., 1986, 261(25), 11512-11519). This test provides a measure of the intrinsic inhibitory properties against soluble 5-LO in an extracellular environment.

`CCC(OC)(c1cccc(OCC#Cc2ccc(F)cc2)c1)c1nccs1` (centres unmarked) [2-[1-[3-(3-(4-fluorophenyl)prop-2-ynyloxy)phenyl]-1-methoxypropyl]thiazole] returned an ED50 in test [1] of 10 mg/kg. The same compound registered an IC50 in test [2] of 40 nM.

Take `CCC(OC)(c1cccc(OCc2ccc3ccccc3c2)c1)c1nccs1` (centres unmarked) [2-[1-methoxy-1-[3-(naphth-2-ylmethoxy)phenyl]propyl]thiazole]: in test [1], the ED50 came to 10 mg/kg. In addition, the IC50 is above 100000 nM in test [3] and 100 nM in test [4].
